Measured values taken from patent US20220402973A1, “POLYPEPTIDE FRAGMENT C (MP-C) AND USE THEREOF” (SHANGHAI LONGXIN BIOMEDICAL TECHNOLOGY CO., LTD., priority 2021, published 2022).

Columns and labels:
Type in all cases: in vivo, mice (male C57BL6)
DSS-induced IBD in mice [1] = test: Colon length in DSS-induced acute IBD mouse model; details: DSS 2.5 wt % induced IBD mice; 50 μg/kg intragastric daily; mean±SD; model group 6.4±0.5, blank 9.5±0.5; in cm (unit assumed)
Experimental: (§1) The administration of a DSS solution with a specified concentration to mice can induce an acute IBD model characterized by diarrhea, hematochezia, ulcer, and granulocyte infiltration. Mice were randomly grouped according to body weights of the mice. 40 healthy male C57BL6 mice were divided into four groups each with 10 mice: […]
(§2) After DSS induction, the body weight changes, activities, and feces viscosity of the mice in each group were recorded every day. […] A mouse colon between an anus end to an ileocecal end was integrally collected, and a length of the colon was measured; and the colon was dissected along a longitudinal axis, feces therein was rinsed off, and then the colon was stored in 4% […] or frozen at −80° C.
(§3) Experimental data in the above experimental method were expressed as (x±SD), the GraphPad Prism (ver. 8.0, GraphPad Software Inc., San Diego, Calif., USA) was used to plot a chart, the SPSS Program (ver. 25.0, SPSS Inc., Chicago, Ill., USA) was used for statistical test, and one-way ANOVA or independent two-sample t-test were used for significance test when the normality and homogeneity of variances were met. […]

DSS-induced IBD in mice [2] = test: DAI scoring in DSS-induced acute IBD mouse model; details: DSS 2.5 wt % induced IBD mice, 50 μg/kg intragastric daily; for DAI (disease activity index) score: 7 days pre-administration then with DSS, end of experiment, mean±SD, model group 3.7±0.6, blank 0.0±0.0; for body weight of mice (effect of intervention): versus model group
Experimental: (§4) The administration of a DSS solution with a specified concentration to mice can induce an acute IBD model characterized by diarrhea, hematochezia, ulcer, and granulocyte infiltration. Mice were randomly grouped according to body weights of the mice. 40 healthy male C57BL6 mice were divided into four groups each with 10 mice:
blank control group: the mice were each intragastrically administered with water every day at a volume of 0.4 mL/20 g;
model group: the mice were each intragastrically administered with a DSS aqueous solution of a mass fraction of 2.5 wt % consecutively for 7 days, where the DSS aqueous solution was freshly prepared and changed every day;
MIMP positive control group: the mice were each given a pre-administration process for one week, that is, the mice were each intragastrically administered with an MIMP solution of a mass fraction of 50 μg/kg for the first 7 days, and then from day 8, the mice were each intragastrically administered with a DSS aqueous solution of a mass fraction of 2.5 wt % (at a volume of 0.4 mL/20 g) and an MIMP solution of a mass fraction of 50 μg/kg (at a volume of 0.4 mL/20 g) every day; and
MP-C experimental group: the mice were each given a pre-administration process for one week, that is, the mice were each intragastrically administered with an MP-C solution of a mass fraction of 50 μg/kg for the first 7 days, and from day 8, the mice were each intragastrically administered with a DSS aqueous solution of a mass fraction of 2.5 wt % (at a volume of 0.4 mL/20 g) and an MP-C solution of a mass fraction of 50 μg/kg (at a volume of 0.4 mL/20 g) every day.
The body weight changes of mice in each group were recorded every day to determine whether the acute IBD mouse model was successfully established.
as §2
Experimental data in the above experimental method were expressed as (x±SD), the GraphPad Prism (ver. 8.0, GraphPad Software Inc., San Diego, Calif., USA) was used to plot a chart, the SPSS Program (ver. 25.0, SPSS Inc., Chicago, Ill., USA) was used for statistical test, and one-way ANOVA or independent two-sample t-test were used for significance test when the normality and homogeneity of variances were met. It was assumed that α=0.05, and P<0.05 indicates a statistically significant difference.

IFN-γ = test: ELISA of colonic IFN-γ expression in DSS-induced IBD mice; details: DSS 2.5 wt % induced IBD mice; 50 μg/kg intragastric daily; colon homogenate ELISA; mean±SD; model group 1223.1±41.5, blank 889.2±74.6
Experimental: as §1
The colon sample frozen at −80° C. in step 1.2 was placed in an EP tube, PBS and magnetic beads were added, and then the colon sample was subjected to ultrasonic homogenization in a tissue grinder; and a resulting homogenate was centrifuged, and a resulting supernatant was collected. […] Appropriate primary and secondary antibodies were used according to the instructions, an o-phenylenediamine (OPD) chromogenic solution was used for color development, and after the reaction was terminated, reading was conducted on a microplate reader at a wavelength of 490 nm, with three replicate wells for each sample.
as §3

DSS-induced IBD in mice [3] = test: Colonic histopathological evaluation (HE staining) in DSS-induced IBD mice; details: DSS 2.5 wt % induced IBD mice, 50 μg/kg intragastric daily, mean±SD, model group 5.6±0.7, blank 0.0±0.0
From the text: as §4
MIMP positive control group: the mice were each given a pre-administration process for one week, that is, the mice were each intragastrically administered with an MIMP solution of a mass fraction of 50 μg/kg for the first 7 days, and then from day 8, the mice were each intragastrically administered with a DSS aqueous solution of a mass fraction of 2.5 wt % (at a volume of 0.4 mL/20 g) and an MIMP solution of a mass fraction of 50 μg/kg (at a volume of 0.4 mL/20 g) every day; and […]
as §3

| Molecule | colon length (DSS-induced IBD in mice [1]) | DAI (disease activity index) score (DSS-induced IBD in mice [2]) | body weight of mice (effect of intervention) (DSS-induced IBD in mice [2]) | expression level of IFN-γ in colon (IFN-γ) | colonic histopathologic score (DSS-induced IBD in mice [3]) |
| --- | --- | --- | --- | --- | --- |
| THTVGSYFVVQNGYVGAFSYALGNSEYAMSSPLGSLDGRTTRYNLL (THTVGSYFXVQNGYVGAFSXALGNSEYAMXSPLGSLDGRTTXYNLL; Sequence is synthesized; (9)..(9) Xaa can be Tyr, Val, Gly, Ser, or Gln; (20)..(20) Xaa can be Ser, Gln, Glu, or Tyr; (30)..(30) Xaa can be Asn, Thr, Ser, Pro, or Leu; (42)..(42) Xaa can be Gly, Arg, Met, or absent) [MP-C] | 9.2±0.2 | 2.0±0.3 | prevented the significant decrease in body weight | 1068.4±61.2 | 1.2±0.2 |
| THTVGSYFSVQNGYVGAFSQALGNSEYAMNSPLGSLDGRTTMYNLLGVKYLFAREDQLKKQ (peptide, listed as Lactobacillus plantarum, positive control) THTVGSYFSVQNGYVGAFSQALGNSEYAMNSPLGSLDGRTTMYNLLGVKYLFAREDQLKKQ | 9.5±0.3 | 2.7±0.7 | prevented the significant decrease in body weight | 1011.4±79.5 | 1.4±0.7 |
